Results published in patent US5763235A (priority 1994, dated 1998).
Like-named read-outs stand apart in the source and are kept apart here.

Key:
[1] = test system: ALA dehydratase variant of strain CR-514; assay: ALA dehydratase reaction with crude enzyme of strain CR-514; format: biochemical, Rhodobacter sphaeroides CR-514; conditions: enzyme of CR-514, unit not given (concentrations in method in mM)
[2] = biological target: ALA dehydratase variant of strain CR-520; assay: ALA dehydratase reaction with crude enzyme of strain CR-520; format: biochemical, Rhodobacter sphaeroides CR-520; conditions: inhibitor constant of levulinic acid, Dixon plot; enzyme of CR-520; 37° C., 60 minutes; unit not given (concentrations in method in mM)
[3] = biological target: ALA dehydratase of strain CR-533; conditions: inhibitor constant of levulinic acid, Dixon plot; enzyme of CR-533; 37° C., 60 minutes; unit not given (concentrations in method in mM)
[4] = biological target: ALA dehydratase of Rhodobacter sphaeroides CR-450; assay: ALA dehydratase reaction with crude enzyme of CR-450 (Comparative Example 2); format: biochemical; conditions: inhibitor constant of levulinic acid, Dixon plot, 37° C., 60 minutes, unit not given (concentrations in method in mM)
strain CR-514 = conditions: glycine 30 mM, 30° C., dark
Experimental: (§1) A 500 ml portion of medium 1 was prepared in a 2 l capacity shaking flask. This was sterilized at 121° C. for 15 minutes and then spontaneously cooled.
(§2) Separately from this, each of the mutant strains CR-514, CR-520 and CR-533 obtained in Example 3 was inoculated into a 21 mm.phi. test tube containing 10 ml of medium 1 which was sterilized in the same manner as described in the foregoing and cultured in the dark at 30° C. for 48 hours on a shaker.
(§3) The entire portion of each culture broth was inoculated into the aforementioned shaking flask and cultured in the dark at 30° C. for 48 hours on a shaker, and the resulting cells were collected by centrifugation.
(§4) The thus collected cells were suspended in 150 ml of sterilized medium 1, to a wet cell density of about 0.3 g/10 ml, and the cell suspension was mixed with 30 mM of glycine and dispensed in 10 ml portions into 21 mm.phi. test tubes. After adding varied concentration of levulinic acid, shaking culture was carried out at 30° C. in the dark.
(§5) (Clinical Chemistry, 36(8): 1494 (1990)).

strain CR-520 = conditions: glycine 30 mM, 30° C., dark
Experimental: as §1, §2, §3, §4, §5

[5] = test system: Rhodobacter sphaeroides IFO 12203; conditions: glycine 30 mM, 30° C., dark
Experimental: as §1, §2, §3, §4, §5

strain CR-533 = conditions: glycine 30 mM, 30° C., dark
Experimental: as §1, §2, §3, §4, §5

[6] = test system: Rhodobacter sphaeroides CR-450; conditions: glycine 30 mM, 30° C., dark
Experimental: as §1, §2, §3, §4, §5
The process of Example 4 was conducted, except that Rhodobacter sphaeroides CR-450 was used and the amount of levulinic acid was changed as shown in Table 3.

## NCC(=O)CCC(=O)O [ALA, 5-aminolevulinic acid]
[1]; Michaelis constant for ALA, Lineweaver-Burk
  Km: 0.76 mM

## CC(=O)CCC(=O)O [levulinic acid]
[2]
  Ki: 0.07 mM
[3]
  Ki: 0.36 mM
[4]
  Ki: 0.37 mM
Strain CR-514; levulinic acid 1 mM
  Amount of ALA formed after 15 hours: 1.5 mM
  Amount of ALA formed after 30 hours: 1.5 mM
Strain CR-514; levulinic acid 5 mM
  Amount of ALA formed after 15 hours: 2.0 mM
  Amount of ALA formed after 30 hours: 3.0 mM
Strain CR-514; levulinic acid 10 mM
  Amount of ALA formed after 15 hours: 2.2 mM
  Amount of ALA formed after 30 hours: 4.1 mM
Strain CR-520; levulinic acid 0.5 mM
  Amount of ALA formed after 15 hours: 2.0 mM
  Amount of ALA formed after 30 hours: 2.8 mM
Strain CR-520; levulinic acid 1 mM
  Amount of ALA formed after 15 hours: 2.5 mM
  Amount of ALA formed after 30 hours: 4.5 mM
Strain CR-520; levulinic acid 5 mM
  Amount of ALA formed after 15 hours: 3.0 mM
  Amount of ALA formed after 30 hours: 6.5 mM
[5]; levulinic acid 5 mM
  Amount of ALA formed after 15 hours: 0.01 mM
  Amount of ALA formed after 30 hours: 0 mM
[5]; levulinic acid 15 mM
  Amount of ALA formed after 15 hours: 0.1 mM
  Amount of ALA formed after 30 hours: 0 mM
Strain CR-533; levulinic acid 5 mM
  Amount of ALA formed after 15 hours: 1.7 mM
  Amount of ALA formed after 30 hours: 2.4 mM
Strain CR-533; levulinic acid 15 mM
  Amount of ALA formed after 15 hours: 2.4 mM
  Amount of ALA formed after 30 hours: 3.9 mM
Strain CR-533; levulinic acid 30 mM
  Amount of ALA formed after 15 hours: 2.2 mM
  Amount of ALA formed after 30 hours: 3.3 mM
[1]; inhibitor constant of levulinic acid, Dixon plot, 37° C., 60 minutes
  Ki: 0.21 mM
[6]; levulinic acid 5 mM
  Amount of ALA formed after 15 hours: 1.5 mM
  Amount of ALA formed after 30 hours: 1.5 mM
[6]; levulinic acid 15 mM
  Amount of ALA formed after 15 hours: 2.5 mM
  Amount of ALA formed after 30 hours: 3.8 mM
[6]; levulinic acid 30 mM
  Amount of ALA formed after 15 hours: 2.0 mM
  Amount of ALA formed after 30 hours: 2.5 mM
